Data: US10544106B2, “Certain chemical entities, compositions, and methods” (NeuPharma, Inc., priority 2016, dated 2020)

Legend:
BTK = BTK (Homo sapiens (Human), UniProt Q06187); assay: Z'-LYTE kinase inhibition assay against BTK; format: biochemical; details: for inhibition at 0.1 µM: compound at 100 nM, ATP concentration at Km; for IC50: series of concentrations, GraphPad Prism 5
Summary of the method: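 Z′-LYTE FRET readout: 1.04-10.4 ng BTK with 2 μM Tyr 01 peptide, ATP at Km, in 50 mM HEPES pH 7.5, 10 mM MgCl2, 1 mM EGTA, 0.01% BRIJ-35, 1% DMSO. 60 min kinase reaction at room temperature, then 60 min development; IC50 from 10-point, 3-fold titrations.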

OCI-Ly10 cells = assay: OCI-Ly10 cell proliferation assay (Alamar Blue, 72 hours); format: cell-based; details: Homo sapiens
Procedure: OCI-Ly10 cells were cultured in Iscove's DMEM supplemented with 20% fetal bovine serum and 1× penicillin/streptomycin/glutamine. The cells were maintained in T175 flasks under 5% CO2 in a 37 ° C. humidified incubator for 5 days prior to plating and assay.
Cells were pooled by centrifugation (200 ref, 8 minutes) and resuspended in fresh medium to a concentration of 2.00E+05 cells/ml. 200 µl of the cell suspension was added to each well (40,000 cells/well) of a black-walled 96 well plate to which 1 μl of compound (n=3 per concentration) in 100% DMSO (0.5% final concentration) was added per well. Vehicle and cell free wells were also included in the assay. The dosed cells were cultured under normal conditions for 72 hours.
Cell proliferation is measured using the dye Alamar Blue (resazurin). Resazurin is reduced to resorufin by cellular enzymes and is fluorescent (544 nm excitation, 612 nm emission). Fluorescence intensity is proportional to cell number. Resazurin was prepared in PBS to a stock concentration of 440 μM. 40 μl of the 440 μM resazurin stock solution was added 3 hours prior to the 72 hour termination of the assay. The plate was returned to normal culture conditions and fluorescence measurements were collected using a Cytation3 multimode plate reader (Biotek) at 72 hours.
The scale utilized in Table 8 is as follows: ++ less than 50 nM and + greater than 50 nM.

BTK, sequence (Q06187 whole entry): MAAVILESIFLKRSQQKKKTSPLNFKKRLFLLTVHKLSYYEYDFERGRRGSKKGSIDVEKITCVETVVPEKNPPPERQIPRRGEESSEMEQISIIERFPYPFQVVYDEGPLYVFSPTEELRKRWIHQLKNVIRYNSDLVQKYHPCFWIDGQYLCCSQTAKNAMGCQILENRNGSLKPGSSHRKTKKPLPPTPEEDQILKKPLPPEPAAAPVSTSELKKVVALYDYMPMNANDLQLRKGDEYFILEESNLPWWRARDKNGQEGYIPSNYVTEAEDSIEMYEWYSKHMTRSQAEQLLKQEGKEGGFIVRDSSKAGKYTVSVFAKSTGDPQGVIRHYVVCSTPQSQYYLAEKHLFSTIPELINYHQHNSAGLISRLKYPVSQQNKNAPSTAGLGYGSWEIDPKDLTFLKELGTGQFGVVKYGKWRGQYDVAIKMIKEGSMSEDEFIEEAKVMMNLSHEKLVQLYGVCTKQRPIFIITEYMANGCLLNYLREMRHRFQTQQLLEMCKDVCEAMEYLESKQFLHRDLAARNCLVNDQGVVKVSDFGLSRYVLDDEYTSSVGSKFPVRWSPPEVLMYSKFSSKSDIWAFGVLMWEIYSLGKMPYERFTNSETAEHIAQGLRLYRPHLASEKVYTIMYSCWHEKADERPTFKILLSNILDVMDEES

SMILES	inhibition at 0.1 µM (BTK) [%]	IC50 (BTK) [nM]	IC50 (OCI-Ly10 cells) [nM]
C=CC(=O)N1CCC(c2nc(-c3ccc(Oc4cc(OC)ccn4)cc3)n3c(N)nccc23)C1 (centres unmarked) [C210, 1-(3-(5-amino-3-(4-((4-methoxypyridin-2-yl)oxy)phenyl)imidazo[1,5-c]pyrimidin-1-yl)pyrrolidin-1-yl)prop-2-en-1-one]	> 50	< 100	< 50
C=CC(=O)N1CCC(c2nc(-c3ccc(C(=O)Nc4cc(C5CC5)ccn4)cc3)n3c(N)ncnc23)C1 (centres unmarked) [C199, 4-(8-(1-acryloylpyrrolidin-3-yl)-4-amino-imidazo[1,5-a][1,3,5]triazin-6-yl)-N-(4-cyclopropylpyridin-2-yl)benzamide]	> 50	< 100	< 50
C=CC(=O)N1CCC(c2nc(-c3ccc(Oc4ccccn4)cc3)n3c(N)nccc23)C1 (centres unmarked) [C186, 1-(3-(5-amino-3-(4-(pyridin-2-yloxy)phenyl)imidazo[1,5-c]pyrimidin-1-yl)pyrrolidin-1-yl)prop-2-en-1-one]	> 50	< 100	< 50
C=CC(=O)N1CCC(c2nc(-c3ccc(Oc4cc(C(F)(F)F)ccn4)cc3)n3c(N)nccc23)C1 (centres unmarked) [C196, 1-(3-(5-amino-3-(4-((4-(trifluoromethyl)pyridin-2-yl)oxy)phenyl)imidazo[1,5-c]pyrimidin-1-yl)pyrrolidin-1-yl)prop-2-en-1-one]	> 50	< 100	< 50
C=CC(=O)N1CCC(c2nc(-c3ccc(C(=O)Nc4ccccn4)cc3)n3c(N)ncnc23)C1 (centres unmarked) [C197, 4-(8-(1-acryloylpyrrolidin-3-yl)-4-amino-imidazo[1,5-a][1,3,5]triazin-6-yl)-N-(pyridin-2-yl)benzamide]	> 50	< 100	< 50
C=CC(=O)Nc1cccc(-c2cc(-c3ccc(Oc4ncccc4F)cc3F)cc3cncnc23)c1 [C105, N-(3-(6-(2-fluoro-4-((3-fluoropyridin-2-yl)oxy)phenyl)quinazolin-8-yl)phenyl)acrylamide]	> 50	< 100	< 50
C=CC(=O)Nc1cccc(-c2cc(-c3ccc(Oc4ccccn4)c(F)c3)cc3cncnc23)c1 [C135, N-(3-(6-(3-fluoro-4-(pyridin-2-yloxy)phenyl)quinazolin-8-yl)phenyl)acrylamide]	> 50	< 100	< 50
C=CC(=O)Nc1cccc(-c2cc(-c3ccc(C(=O)N4CCCC4)cc3)cc3cncnc23)c1 [C102, N-(3-(6-(4-(pyrrolidine-1-carbonyl)phenyl)quinazolin-8-yl)phenyl)acrylamide]	> 50	< 100	> 50
C=CC(=O)N1CCC(c2cc(-c3ccc(C(=O)Nc4cc(C(F)(F)F)ccn4)cc3F)n3cnccc23)C1 (centres unmarked) [C130, 4-(5-(1-acryloylpyrrolidin-3-yl)pyrrolo[1,2-c]pyrimidin-7-yl)-3-fluoro-N-(4-(trifluoromethyl)pyridin-2-yl)benzamide]	< 50		
C=CC(=O)N1CCC(c2cc(-c3ccc(Oc4cc(C(F)(F)F)ccn4)cc3)c(N)c3cncnc23)C1 (centres unmarked) [C193, 1-(3-(5-amino-6-(4-((4-(trifluoromethyl)pyridin-2-yl)oxy)phenyl)quinazolin-8-yl)pyrrolidin-1-yl)prop-2-en-1-one]	< 50	> 100	
C=CC(=O)N1CCC(c2cc(-c3ccc(Oc4cc(C(F)(F)F)ccn4)cc3F)cc3cncnc23)C1 (centres unmarked) [C090, 1-(3-(6-(2-Fluoro-4-((4-(trifluoromethyl)pyridin-2-yl)oxy)phenyl)quinazolin-8-yl)pyrrolidin-1-yl)prop-2-en-1-one]	< 50		
C=CC(=O)Nc1cccc(-c2cc(-c3ccc(C(=O)Nc4ccccn4)cc3)c(N)c3cnc(N)nc23)c1 [C178, 4-(8-(3-acrylamidophenyl)-2,5-diamino-quinazolin-6-yl)-N-(pyridin-2-yl)benzamide]	< 50		
C=CC(=O)N1CCC(c2cc(-c3ccc(Oc4ccccn4)cc3)cc3cncnc23)C1 (centres unmarked) [C107, 1-(3-(6-(4-(pyridin-2-yloxy)phenyl)quinazolin-8-yl)pyrrolidin-1-yl)prop-2-en-1-one]	> 50		
C=CC(=O)N1CCC(c2cc(-c3ccccc3F)cc3cnc(N)nc23)C1 (centres unmarked) [C085, 1-(3-(2-amino-6-(2-fluorophenyl)quinazolin-8-yl)pyrrolidin-1-yl)prop-2-en-1-one]	< 50		
C=CC(=O)N1CCC(c2cc(-c3ccc(Oc4cccc(C(F)(F)F)c4)nc3)cc3cncnc23)C1 (centres unmarked) [C082, 1-(3-(6-(6-(3-(trifluoromethyl)phenoxy)pyridin-3-yl)quinazolin-8-yl)pyrrolidin-1-yl)prop-2-en-1-one]	< 50		
C=CC(=O)Nc1cccc(-c2cc(-c3ccc(C(=O)Nc4cc(C5CC5)ccn4)cc3)c(N)c3cncnc23)c1 [C171, 4-(8-(3-acrylamidophenyl)-5-aminoquinazolin-6-yl)-N-(4-cyclopropylpyridin-2-yl)benzamide]	> 50	< 100	
C=CC(=O)N1CCCC(c2cc(-c3ccccc3)cc3c(N)ncnc23)C1 (centres unmarked) [C034, 1-(3-(4-amino-6-phenylquinazolin-8-yl)piperidin-1-yl)prop-2-en-1-one]	< 50		
C=CC(=O)N1CCCC(c2cc(-c3cccc(Nc4cccc(C(F)(F)F)c4)c3)cc3cncnc23)C1 (centres unmarked) [C029, 1-(3-(6-(3-((3-(trifluoromethyl)phenyl)amino)phenyl)quinazolin-8-yl)piperidin-1-yl)prop-2-en-1-one]	< 50		
C=CC(=O)N1CCC(c2nc(-c3ccc(Oc4cc(C(F)(F)F)ccn4)c(F)c3)n3c(N)nccc23)C1 (centres unmarked) [C206, 1-(3-(5-amino-3-(3-fluoro-4-((4-(trifluoro-methyl)pyridin-2-yl)oxy)phenyl)imidazo[1,5-c]pyrimidin-1-yl)pyrrolidin-1-yl)prop-2-en-1-one]	> 50	< 100	
C=CC(=O)N1CCC(n2c(-c3ccccc3F)nc3cncnc32)C1 (centres unmarked) [C032, 1-(3-(8-(2-fluorophenyl)-9H-purin-9-yl)pyrrolidin-1-yl)prop-2-en-1-one]	< 50		
C=CC(=O)Nc1cccc(-c2cc(-c3ccc(Oc4cc(C(F)(F)F)ccn4)cc3F)cc3cncnc23)c1 [C180]	> 50		
C=CC(=O)N1CCC(c2cc(-c3ccc(C(=O)Nc4cccc(C(F)(F)F)c4)nc3)cc3cncnc23)C1 (centres unmarked) [C093, 5-(8-(1-acryloylpyrrolidin-3-yl)quinazolin-6-yl)-N-(3-(trifluoromethyl)phenyl)picolinamide]	< 50		
C=CC(=O)Nc1cccc(-c2cc(-c3ccc(C(=O)Nc4cc(C#N)ccn4)cc3)c(N)c3cncnc23)c1 [C176, 4-(8-(3-acrylamidophenyl)-5-aminoquinazolin-6-yl)-N-(4-cyanopyridin-2-yl)benzamide]	< 50		
CC#CC(=O)N1CCC(c2nc(-c3ccc(Oc4ccccn4)c(F)c3)n3c(N)nccc23)C1 (centres unmarked) [C209, 1-(3-(5-amino-3-(3-fluoro-4-(pyridin-2-yloxy)phenyl)imidazo[1,5-c]pyrimidin-1-yl)pyrrolidin-1-yl)but-2-yn-1-one]	> 50		
C=CC(=O)N1CCCC(n2c(-c3ccccc3Cl)nc3cnc(N)nc32)C1 (centres unmarked) [C027, 1-(3-(2-amino-8-(2-chlorophenyl)-9H-purin-9-yl)piperidin-1-yl)prop-2-en-1-one]	< 50		
CC#CC(=O)N1CCC(c2nc(-c3ccc(C(=O)Nc4cc(OC)ccn4)cc3)n3c(N)nccc23)C1 (centres unmarked) [C241, 4-(5-amino-1-(1-(but-2-ynoyl)pyrrolidin-3-yl)imidazo[1,5-c]pyrimidin-3-yl)-N-(4-methoxypyridin-2-yl)benzamide]		< 100	
C=CC(=O)Nc1cccc(-c2cc(-c3ccc(Oc4ccccn4)c(F)c3)cc3cnc(N)nc23)c1 [C158, N-(3-(2-amino-6-(3-fluoro-4-(pyridin-2-yloxy)phenyl)quinazolin-8-yl)phenyl)acrylamide]	> 50	< 100	
C=CC(=O)N1CCC(c2cc(-c3ccc(C(=O)Nc4cc(OC)ccn4)c(F)c3)n3cnccc23)C1 (centres unmarked) [C148, 4-(5-(1-acryloylpyrrolidin-3-yl)pyrrolo[1,2-c]pyrimidin-7-yl)-2-fluoro-N-(4-methoxypyridin-2-yl)benzamide]	< 50		
C=CC(=O)N1CCC(c2cc(-c3ccc(C(=O)Nc4ccccn4)cc3F)n3cnccc23)C1 (centres unmarked) [C126, 4-(5-(1-acryloylpyrrolidin-3-yl)pyrrolo[1,2-c]pyrimidin-7-yl)-3-fluoro-N-(pyridin-2-yl)benzamide]	< 50		
C=CC(=O)Nc1cccc(-c2cc(-c3ccc(C(=O)Nc4cccnc4)cc3)cc3cncnc23)c1 [C113, 4-(8-(3-acrylamidophenyl)quinazolin-6-yl)-N-(pyridin-3-yl)benzamide]	< 50		
